Source: PMC11280411, “Phytochemical Investigation of Carex praecox Schreb. and ACE-Inhibitory Activity of Oligomer Stilbenes of the Plant” (Molecules, 2024)
Read-outs that look alike come from different tables or passages of the source.

What was measured:
[1] = target: T1, ACE from rabbit lung (Oryctolagus cuniculus, UniProt P12822); test: ACE-inhibitory assay (ACE Activity Assay Kit, fluorescence); type: biochemical; conditions: for inhibition at 90 µM: read-out: Inhibition at 90 μM (%) ± SD
T1 construct: ACE from rabbit lung, A6778, Sigma-Aldrich, USA; purchased Sigma-Aldrich A6778; host or cells: rabbit lung (tissue-derived)
T1 sequence (P12822 34-1310): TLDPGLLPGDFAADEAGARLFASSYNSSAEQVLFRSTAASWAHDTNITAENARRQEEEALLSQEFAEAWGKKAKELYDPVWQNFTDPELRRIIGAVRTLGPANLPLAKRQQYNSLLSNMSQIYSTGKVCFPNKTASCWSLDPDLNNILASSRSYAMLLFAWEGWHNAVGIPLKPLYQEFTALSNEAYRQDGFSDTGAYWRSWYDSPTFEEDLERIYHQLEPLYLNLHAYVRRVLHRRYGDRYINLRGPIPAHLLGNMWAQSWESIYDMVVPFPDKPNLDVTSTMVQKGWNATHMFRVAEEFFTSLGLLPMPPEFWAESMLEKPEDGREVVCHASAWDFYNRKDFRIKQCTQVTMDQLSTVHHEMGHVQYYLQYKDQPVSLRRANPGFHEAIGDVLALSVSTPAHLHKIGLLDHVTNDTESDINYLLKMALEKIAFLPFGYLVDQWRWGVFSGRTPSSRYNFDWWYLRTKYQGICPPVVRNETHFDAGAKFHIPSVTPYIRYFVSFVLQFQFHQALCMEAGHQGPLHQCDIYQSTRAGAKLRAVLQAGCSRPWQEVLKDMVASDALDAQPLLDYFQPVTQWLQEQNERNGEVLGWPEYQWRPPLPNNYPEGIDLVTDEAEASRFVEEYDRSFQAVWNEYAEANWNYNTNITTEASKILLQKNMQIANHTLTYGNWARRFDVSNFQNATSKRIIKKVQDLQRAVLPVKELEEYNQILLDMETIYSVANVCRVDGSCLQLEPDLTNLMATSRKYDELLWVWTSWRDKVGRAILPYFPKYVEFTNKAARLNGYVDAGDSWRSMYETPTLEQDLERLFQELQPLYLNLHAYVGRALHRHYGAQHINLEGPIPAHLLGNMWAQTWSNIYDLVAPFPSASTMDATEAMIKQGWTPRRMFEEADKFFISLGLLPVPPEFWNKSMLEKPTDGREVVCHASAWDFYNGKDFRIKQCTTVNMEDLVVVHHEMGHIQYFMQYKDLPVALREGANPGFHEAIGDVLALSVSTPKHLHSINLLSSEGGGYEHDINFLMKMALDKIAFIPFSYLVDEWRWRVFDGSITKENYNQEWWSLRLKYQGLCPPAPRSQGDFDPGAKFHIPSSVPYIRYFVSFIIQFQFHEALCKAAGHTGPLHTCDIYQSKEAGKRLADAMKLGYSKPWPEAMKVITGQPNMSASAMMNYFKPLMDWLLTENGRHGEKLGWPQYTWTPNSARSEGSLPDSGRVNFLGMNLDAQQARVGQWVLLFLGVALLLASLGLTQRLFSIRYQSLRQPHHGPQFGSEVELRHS

[2] = test system: Colo 320/MDR-LRP expressing ABCB1
[3] = test system: Colo 205; test: Antiproliferative MTT assay; type: cell-based, human; conditions: doxorubicin-sensitive cells; for IC50: read-out: IC50 (μM) ± SD, Colo 205
[4] = test system: Colo 320/MDR-LRP expressing ABCB1; test: Antiproliferative MTT assay; conditions: for IC50: Homo sapiens, COLO 320, 72 h, read-out: IC50 (μM) ± SD, Colo 320
[5] = test system: velvetleaf seeds; set-up: method as in doi:10.1007/BF02266955; conditions: cited from earlier work
[6] = target: T2, C-domain of rabbit lung ACE (Oryctolagus cuniculus, UniProt P12822); test: ACE domain-specific inhibition, C-domain (FRET substrate Abz-LFK(Dnp)-OH); type: biochemical; conditions: for Inhibition (%) ± SD, C-Domain: Abz-LFK(Dnp)-OH [S] = 21 μM
T2 construct: on the C- and N-domain of a rabbit lung ACE using the FRET substrates; from tissue; host or cells: rabbit lung
T2 sequence (P12822 34-1310): T1 sequence (P12822 34-1310)
Experimental: (§1) ACE domain-specific inhibition studies were performed based on previously reported methods (Carmona et al., 2006 [57]; Lunow et al., 2015 [58]). Fluorescence resonance energy transfer (FRET) substrates, Abz-SDK(Dnp)P-OH and Abz-LFK(Dnp)-OH were used for the N-domain and C-domain, respectively. […] Briefly, 40 μL of assay buffer and 60 μL of the FRET substrate solutions were preincubated for 10 min at 37 °C, with the reaction started by adding 20 μL of diluted ACE solution (5 μL ACE + 15 μL 0.1 mol/L TRIS buffer) and fluorescence measured at λex/λem = 290/450 nm every minute at 37 °C for 30 min. The corresponding KM of the FRET substrates, determined using the Michaelis–Menten equation, was used as the substrate concentration of the FRET substrates used in percent inhibition studies. The inhibitory activity of 16 on both domains was determined as described above with the 40 μL solution containing the inhibitor (inhibitor in DMSO–Assay buffer, 1:9). The control samples, which correspond to 100% enzyme activity, were prepared by replacing the inhibitor solution with TRIS buffer. Dose–effect studies on 16 using the FRET substrates were used to determine the IC50 of this compound on both ACE domains. All experiments were performed in triplicates. The ACE-inhibitory activity was calculated using the following equation:(%) = (Ab − Aa) − (Cb − Ca)/(Ab − Aa) × 100(2) where Aa is the absorbance of control wells at 0 min; Ab is the absorbance of control wells at 15 min; Ca is the absorbance of the inhibitor wells at 0 min; and Cb is the absorbance of inhibitor wells at 15 min.

[7] = target: T3, N-domain of rabbit lung ACE (Oryctolagus cuniculus, UniProt P12822); test: ACE domain-specific inhibition, N-domain (FRET substrate Abz-SDK(Dnp)P-OH); type: biochemical; conditions: for Inhibition (%) ± SD, N-Domain: Abz-SDK(Dnp)P-OH [S] = 72 μM
T3 construct: on the C- and N-domain of a rabbit lung ACE using the FRET substrates; from tissue; host or cells: rabbit lung
T3 sequence (P12822 34-1310): T1 sequence (P12822 34-1310)
Experimental: as §1

[8] = test system: HIV transcription; set-up: method as in PMID 36975214; conditions: T cells; cited from earlier work

kobophenol A [Compound 17]
IC50 ([1]; ACE from rabbit lung): 14.8 ± 0.8 µM
Inhibition at 90 μM (%) ± SD ([1]; ACE from rabbit lung, 90 μM): 98.5 ± 1.2%
IC50 [2]: > 100 µM
IC50 ([3]; 72 h): > 100 µM

Oc1ccc(/C=C\c2cc(O)cc3c2[C@H](c2cc(O)cc4c2[C@H](c2cc(O)cc(O)c2)[C@@H](c2ccc(O)cc2)O4)[C@@H](c2ccc(O)cc2)O3)cc1 [Compound 15, Z-miyabenol C]
IC50 [4]: > 100 µM
IC50 ([1]; ACE from rabbit lung): 15.2 ± 0.4 µM
inhibition at 90 µM ([1]; ACE from rabbit lung, 90 μM): 96.7 ± 6.3%
IC50 ([3]; Homo sapiens, COLO 205, 72 h): > 100 µM

O=c1ccoc2cc(O)cc(O)c12 [Compound 22, 5,7-dihydroxychromone]
inhibition of germination [5]: inhibited the germination of velvetleaf seeds

COc1cccc2c1C(=O)c1c(O)c3c(c(O)c1C2=O)C[C@@](O)(C(=O)CO)C[C@@H]3O[C@H]1C[C@H](N)[C@H](O)[C@H](C)O1 [Doxorubicin, reference compound]
IC50 [4]: 0.67 ± 0.06 µM
IC50 ([3]; Homo sapiens, COLO 205, 72 h): 0.33 ± 0.03 µM

Oc1ccc(/C=C\c2cc(O)cc3c2C(c2cc(O)cc(O)c2)C(c2ccc(O)cc2)O3)cc1 (stereo not drawn) [Compound 13, cis-ε-viniferin]
IC50 [4]: > 100 µM
IC50 ([1]; ACE from rabbit lung): 18 ± 1.2 µM
inhibition at 90 µM [1]: 95.5 ± 2.8%
IC50 ([3]; Homo sapiens, COLO 205, 72 h): > 100 µM

Oc1ccc(/C=C/c2cc(O)cc3c2C(c2cc(O)cc(O)c2)C(c2ccc(O)cc2)O3)cc1 (stereo not drawn) [Compound 14, trans-ε-viniferin]
IC50 [4]: > 100 µM
IC50 ([1]; ACE from rabbit lung): 14 ± 0.7 µM
inhibition at 90 µM [1]: 107 ± 1.1%
IC50 ([3]; Homo sapiens, COLO 205, 72 h): > 100 µM

N.N.[Cl][Pt][Cl] [Cisplatin, reference compound]
IC50 ([3]; 72 h): 53.9 ± 3.92 µM

bradykinin-potentiating peptide b [BPPb, reference compound]
Inhibition (%) ± SD, C-Domain ([6]; inhibitor 200 nM): 83.20 ± 3.6%
Inhibition (%) ± SD, N-Domain ([7]; inhibitor 200 nM): 5.2 ± 0.2%

Oc1ccc(/C=C/c2cc(O)cc(O)c2)cc1 [Compound 12, trans-resveratrol]
IC50 [4]: 40.4 ± 1.84 µM
IC50 (μM) ± SD, Colo 320 [2]: notable antiproliferative activity
IC50 (μM) ± SD, Colo 205 ([3]; 72 h): notable antiproliferative activity
IC50 ([3]; Homo sapiens, COLO 205, 72 h): 48.3 ± 1.54 µM

Oc1ccc(C2Oc3cc(O)cc4c3C2c2cc(O)cc(O)c2C(c2ccc(O)cc2)C4C2c3cc(O)cc4c3C(c3cc(O)cc(O)c3C2c2ccc(O)cc2)C(c2ccc(O)cc2)O4)cc1 (single isomer, unassigned; (-)) [Compound 16, (–)-hopeaphenol]
IC50 [4]: 6.08 ± 0.24 µM
IC50 (μM) ± SD, Colo 320 ([4]; MTT, 72 h, doxorubicin-resistant cells expressing ABCB1): notable antiproliferative activity
IC50 ([1]; ACE from rabbit lung): 7.7 ± 0.9 µM
inhibition at 90 µM ([1]; ACE from rabbit lung, 90 μM): 103 ± 1.5%
type of ACE inhibition (enzyme-kinetic studies) ([1]; Lineweaver-Burk, substrate Abz-Gly-Phe(NO2)-Pro): mixed-type inhibition
IC50 (μM) ± SD, Colo 205 ([3]; 72 h): notable antiproliferative activity
IC50 ([3]; Homo sapiens, COLO 205, 72 h): 1.59 ± 0.11 µM
times lower affinity for the C-domain than for the N-domain ([6]; C-domain versus N-domain IC50): 10 times
Inhibition (%) ± SD, C-Domain ([6]; inhibitor 10 μM): 18.17 ± 0.5%
Inhibition (%) ± SD, C-Domain ([6]; inhibitor 50 μM): 23.39 ± 0.6%
IC50 ([6]; rabbit lung ACE, FRET substrate Abz-LFK(Dnp)-OH): > 300 µM
inhibition of HIV transcription [8]: selective inhibitor of HIV transcription
Inhibition (%) ± SD, N-Domain ([7]; inhibitor 10 μM): 42.41 ± 0.8%
Inhibition (%) ± SD, N-Domain ([7]; inhibitor 50 μM): 55.74 ± 3.2%
IC50 ([7]; rabbit lung ACE, FRET substrate Abz-SDK(Dnp)P-OH): 35.7 ± 2.3 µM
